# Measured values from ChEMBL document CHEMBL1201862, “PubChem BioAssay data set” (2004).
#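 Briefly, cells in 96-well plates were exposed to five compound concentrations for 48 h, and endpoints were estimated by linear interpolation. At the GI50, growth is halved.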 Calls of active or inactive are those of the source. Rule as the data show it: active = GI50 up to about 1.1 µM and inactive = higher.
# Key:
# Assay in all cases: growth of human tumour cells (NCI), 48 h
# 786-0 = system: 786-0
# A498 = system: A498
# COLO 205 = system: COLO 205
# DU-145 = system: DU-145
# HOP-62 = system: HOP-62
# IGROV-1 = system: IGROV-1
# Malme-3M = system: Malme-3M
# NCI-H226 = system: NCI-H226
# NCI-H23 = system: NCI-H23
# OVCAR-4 = system: OVCAR-4
# RPMI-8226 = system: RPMI-8226
# RXF 393 = system: RXF 393
# SF-539 = system: SF-539
# SN12C = system: SN12C
# SNB-75 = system: SNB-75
# SR = system: SR
# OVCAR-3 = system: OVCAR-3
# SF-295 = system: SF-295
# SK-MEL-5 = system: SK-MEL-5
Structure (SMILES),GI50 (786-0),GI50 (A498),GI50 (COLO 205),GI50 (DU-145),GI50 (HOP-62),GI50 (IGROV-1),GI50 (Malme-3M),GI50 (NCI-H226),GI50 (NCI-H23),GI50 (OVCAR-4),GI50 (RPMI-8226),GI50 (RXF 393),GI50 (SF-539),GI50 (SN12C),GI50 (SNB-75),GI50 (SR),GI50 (OVCAR-3),GI50 (SF-295),GI50 (SK-MEL-5)
C[C@H](CCC(=O)O)[C@H]1CC[C@H]2[C@@H]3[C@@H](O)C[C@@H]4C[C@H](O)CC[C@]4(C)[C@H]3C[C@H](O)[C@]12C,> 100 µM (inactive),> 100 µM (inactive),> 100 µM (inactive),> 100 µM (inactive),> 100 µM (inactive),> 100 µM (inactive),> 100 µM (inactive),> 100 µM (inactive),> 100 µM (inactive),> 100 µM (inactive),> 100 µM (inactive),> 100 µM (inactive),> 100 µM (inactive),> 100 µM (inactive),> 100 µM (inactive),> 100 µM (inactive),–,–,–
C[Si](C)(C)C1=C2C(=O)c3ccccc3C(=O)C2=C([Si](C)(C)C)[C@@H]2CCCC[C@H]12,–,> 100 µM (inactive),> 100 µM (inactive),> 100 µM (inactive),–,> 100 µM (inactive),> 100 µM (inactive),–,> 100 µM (inactive),95.3 µM (inactive),> 100 µM (inactive),> 100 µM (inactive),> 100 µM (inactive),> 100 µM (inactive),–,> 100 µM (inactive),> 100 µM (inactive),> 100 µM (inactive),> 100 µM (inactive)
COc1ccc(N2C(=O)C3c4[nH]c5ccccc5c4C4CCCCCCCC4C3C2=O)cc1 (configuration not stated),–,> 10 µM (inactive),> 10 µM (inactive),> 10 µM (inactive),> 10 µM (inactive),> 10 µM (inactive),> 10 µM (inactive),> 10 µM (inactive),> 10 µM (inactive),> 10 µM (inactive),> 10 µM (inactive),> 10 µM (inactive),6.95 µM (inactive),> 10 µM (inactive),5.22 µM (inactive),> 10 µM (inactive),> 10 µM (inactive),> 10 µM (inactive),> 10 µM (inactive)
Cc1cc(C#N)c(Nc2ccc(F)cc2[N+](=O)[O-])s1,54.5 µM (inactive),> 100 µM (inactive),> 100 µM (inactive),> 100 µM (inactive),30.3 µM (inactive),–,70.6 µM (inactive),> 100 µM (inactive),> 100 µM (inactive),> 100 µM (inactive),> 100 µM (inactive),20.2 µM (inactive),80.7 µM (inactive),> 100 µM (inactive),21.3 µM (inactive),> 100 µM (inactive),> 100 µM (inactive),30.8 µM (inactive),–
O=C(N/N=C\c1ccc([N+](=O)[O-])cc1)Nc1ccccc1,–,> 100 µM (inactive),> 100 µM (inactive),> 100 µM (inactive),> 100 µM (inactive),> 100 µM (inactive),> 100 µM (inactive),> 100 µM (inactive),> 100 µM (inactive),> 100 µM (inactive),> 100 µM (inactive),> 100 µM (inactive),–,> 100 µM (inactive),> 100 µM (inactive),> 100 µM (inactive),> 100 µM (inactive),> 100 µM (inactive),> 100 µM (inactive)
c1ccc(C(=NCCC2CNc3ccccc32)c2ccccc2)cc1 (configuration not stated),> 100 µM (inactive),> 100 µM (inactive),> 100 µM (inactive),> 100 µM (inactive),> 100 µM (inactive),89.3 µM (inactive),> 100 µM (inactive),–,> 100 µM (inactive),> 100 µM (inactive),> 100 µM (inactive),> 100 µM (inactive),–,–,–,> 100 µM (inactive),> 100 µM (inactive),> 100 µM (inactive),> 100 µM (inactive)
CN1CCC(CNC(=O)CCCCCCCCC(=O)NCC2(c3ccccc3)CCN(C)CC2)(c2ccccc2)CC1,52.4 µM (inactive),> 100 µM (inactive),69.7 µM (inactive),> 100 µM (inactive),> 100 µM (inactive),> 100 µM (inactive),> 100 µM (inactive),> 100 µM (inactive),–,> 100 µM (inactive),> 100 µM (inactive),> 100 µM (inactive),15 µM (inactive),> 100 µM (inactive),44.2 µM (inactive),> 100 µM (inactive),> 100 µM (inactive),> 100 µM (inactive),> 100 µM (inactive)
Cn1c(=O)oc2cc(C(=S)N3CCCCC3)ccc21,> 100 µM (inactive),> 100 µM (inactive),> 100 µM (inactive),> 100 µM (inactive),> 100 µM (inactive),> 100 µM (inactive),> 100 µM (inactive),> 100 µM (inactive),> 100 µM (inactive),–,> 100 µM (inactive),> 100 µM (inactive),> 100 µM (inactive),> 100 µM (inactive),> 100 µM (inactive),68.4 µM (inactive),> 100 µM (inactive),> 100 µM (inactive),> 100 µM (inactive)
Cc1cn(C2CC(n3cc(Cn4cc(I)c(=O)[nH]c4=O)nn3)C(CO)O2)c(=O)[nH]c1=O (configuration not stated),–,> 100 µM (inactive),> 100 µM (inactive),> 100 µM (inactive),> 100 µM (inactive),–,–,> 100 µM (inactive),> 100 µM (inactive),> 100 µM (inactive),> 100 µM (inactive),> 100 µM (inactive),> 100 µM (inactive),> 100 µM (inactive),> 100 µM (inactive),< 0.01 µM (active),> 100 µM (inactive),> 100 µM (inactive),> 100 µM (inactive)
Fc1cc(-c2cc(-c3ccccc3)no2)c(Cl)cc1Cl,15.5 µM (inactive),> 33 µM (inactive),11.3 µM (inactive),> 32.3 µM (inactive),22.7 µM (inactive),12.7 µM (inactive),19.2 µM (inactive),–,14 µM (inactive),22.9 µM (inactive),6.93 µM (inactive),7.11 µM (inactive),> 12.4 µM (inactive),> 32.4 µM (inactive),> 31.6 µM (inactive),13.9 µM (inactive),21.6 µM (inactive),22.5 µM (inactive),16.4 µM (inactive)
Cc1cc2nn(C3CCCCO3)nc2cc1C (configuration not stated),> 100 µM (inactive),60.4 µM (inactive),> 100 µM (inactive),> 100 µM (inactive),> 100 µM (inactive),> 100 µM (inactive),> 100 µM (inactive),> 100 µM (inactive),> 100 µM (inactive),> 100 µM (inactive),–,> 100 µM (inactive),> 100 µM (inactive),> 100 µM (inactive),> 100 µM (inactive),> 100 µM (inactive),> 100 µM (inactive),> 100 µM (inactive),> 100 µM (inactive)
O=C1/C(=C\c2cccc(Oc3ccccc3)c2)S(=O)(=O)C(c2ccccc2)N1c1cc(Cl)ccc1Cl (configuration not stated),16.1 µM (inactive),39.2 µM (inactive),22.2 µM (inactive),20.9 µM (inactive),19.4 µM (inactive),15.6 µM (inactive),20.1 µM (inactive),–,19.4 µM (inactive),23.1 µM (inactive),5.94 µM (inactive),15.5 µM (inactive),5.43 µM (inactive),16.9 µM (inactive),23.9 µM (inactive),6.31 µM (inactive),20.1 µM (inactive),14.2 µM (inactive),17 µM (inactive)
c1ccc(-c2c3c(nc4c2CC[C@H]4NC2=NCCN2)[C@@H](NC2=NCCN2)CC3)cc1,> 100 µM (inactive),> 100 µM (inactive),> 100 µM (inactive),> 100 µM (inactive),> 100 µM (inactive),40 µM (inactive),> 100 µM (inactive),> 73.1 µM (inactive),> 100 µM (inactive),> 100 µM (inactive),–,> 100 µM (inactive),27.4 µM (inactive),> 100 µM (inactive),58.1 µM (inactive),> 100 µM (inactive),65.8 µM (inactive),> 100 µM (inactive),> 100 µM (inactive)
CCOC(=O)c1c2cccccc-2nc1Nc1cccc2c(C)ccnc12,> 10 µM (inactive),> 10 µM (inactive),7.43 µM (inactive),> 10 µM (inactive),> 10 µM (inactive),4.82 µM (inactive),> 10 µM (inactive),> 10 µM (inactive),> 10 µM (inactive),4.82 µM (inactive),3.03 µM (inactive),> 10 µM (inactive),> 10 µM (inactive),> 10 µM (inactive),–,9.95 µM (inactive),4.81 µM (inactive),> 10 µM (inactive),> 10 µM (inactive)
O=C1CC2[C@@H](N3CCCC3)CCC(N1Cc1ccccc1)C2(O)O (some centres not stated),> 100 µM (inactive),> 100 µM (inactive),> 100 µM (inactive),> 100 µM (inactive),> 100 µM (inactive),> 100 µM (inactive),> 100 µM (inactive),> 100 µM (inactive),> 100 µM (inactive),> 10 µM (inactive),–,> 100 µM (inactive),> 100 µM (inactive),> 100 µM (inactive),–,> 100 µM (inactive),> 100 µM (inactive),> 100 µM (inactive),> 100 µM (inactive)
